# Test results taken from US4563527A, “Amidine compounds” (Torii & Co., Ltd., priority 1984, dated 1986).
# How the values were obtained:
# Trypsin = target: T1, Trypsin (Bos taurus, UniProt P00760); experiment: Anti-trypsin activity (hydrolysis of TAME); assay type: biochemical
# T1 sequence (P00760 24-246): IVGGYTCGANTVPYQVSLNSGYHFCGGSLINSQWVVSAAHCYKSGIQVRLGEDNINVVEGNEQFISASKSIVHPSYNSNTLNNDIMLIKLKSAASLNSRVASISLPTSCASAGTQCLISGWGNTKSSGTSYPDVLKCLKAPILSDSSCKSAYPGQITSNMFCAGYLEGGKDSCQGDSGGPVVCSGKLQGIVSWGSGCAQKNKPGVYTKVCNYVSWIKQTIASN
# Method: (§1) The anti-trypsin, anti-plasmin, anti-kallikrein and anti-thrombin activities were determined according to the method of Muramatsu et al. [M. Muramatus, T. Onishi, S. Makino, Y. Hayashi and S. Fujii, J. of Biochem., 58, 214 (1965)]. The data summarized in Table 1 are expressed in terms of molar concentration (ID50) of the test compound which inhibits 50% of the activity of each enzyme to hydrolyze TAME (tosylalginine methyl ester). The compound No. corresponds to the compound number shown in Examples.
# Plasmin = Plasmin (Homo sapiens, UniProt P00747); experiment: Anti-plasmin activity (hydrolysis of TAME); assay type: biochemical
# Sequence of Plasmin (P00747 581-810 limits assumed, species assumed): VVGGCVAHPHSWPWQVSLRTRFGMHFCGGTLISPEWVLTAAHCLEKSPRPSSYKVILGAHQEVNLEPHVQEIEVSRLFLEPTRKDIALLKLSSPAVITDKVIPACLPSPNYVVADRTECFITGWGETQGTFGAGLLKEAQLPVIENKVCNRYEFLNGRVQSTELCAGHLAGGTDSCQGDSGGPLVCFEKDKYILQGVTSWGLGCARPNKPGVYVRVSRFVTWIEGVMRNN
# Sequence of Plasmin (P00747 97-580 partner limits assumed, species assumed): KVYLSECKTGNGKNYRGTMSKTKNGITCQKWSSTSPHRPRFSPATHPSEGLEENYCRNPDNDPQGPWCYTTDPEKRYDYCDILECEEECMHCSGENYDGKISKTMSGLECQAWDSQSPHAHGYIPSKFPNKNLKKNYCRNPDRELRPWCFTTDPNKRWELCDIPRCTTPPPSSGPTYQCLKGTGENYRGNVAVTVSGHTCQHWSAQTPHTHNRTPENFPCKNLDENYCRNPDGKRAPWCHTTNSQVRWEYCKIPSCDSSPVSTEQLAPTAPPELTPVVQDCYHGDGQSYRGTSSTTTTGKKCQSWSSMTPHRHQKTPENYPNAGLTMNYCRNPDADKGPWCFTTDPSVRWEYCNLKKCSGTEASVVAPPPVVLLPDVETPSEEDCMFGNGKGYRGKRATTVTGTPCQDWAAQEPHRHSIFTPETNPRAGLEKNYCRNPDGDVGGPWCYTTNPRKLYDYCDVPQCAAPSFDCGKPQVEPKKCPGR
# Method: The anti-trypsin, anti-plasmin, anti-kallikrein and anti-thrombin activities were determined according to the method of Muramatsu et al. [M. Muramatus, T. Onishi, S. Makino, Y. Hayashi and S. Fujii, J. of Biochem., 58, 214 (1965)]. […] The compound No. corresponds to the compound number shown in Examples.
# Kallikrein = experiment: Anti-kallikrein activity (hydrolysis of TAME); assay type: biochemical; conditions: molar concentration inhibiting 50% of TAME hydrolysis; read-out: ID50 kallikrein
# Method: as §1
# Thrombin = Thrombin (Homo sapiens, UniProt P00734); experiment: biochemical
# C1r = target: T2, C1r (Homo sapiens, UniProt P00736); experiment: biochemical; conditions: molar concentration inhibiting 50% of AAME hydrolysis; read-out: ID50 C1r (Anti-C1 activity)
# T2 sequence (P00736 464-705 limits assumed): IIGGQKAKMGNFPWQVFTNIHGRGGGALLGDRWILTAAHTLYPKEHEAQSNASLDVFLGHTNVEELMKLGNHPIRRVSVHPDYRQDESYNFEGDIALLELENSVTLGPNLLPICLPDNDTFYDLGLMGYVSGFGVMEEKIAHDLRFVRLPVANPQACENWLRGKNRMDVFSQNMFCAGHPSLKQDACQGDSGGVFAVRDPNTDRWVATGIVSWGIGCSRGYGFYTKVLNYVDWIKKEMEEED
# T2 sequence (P00736 18-463 partner limits assumed): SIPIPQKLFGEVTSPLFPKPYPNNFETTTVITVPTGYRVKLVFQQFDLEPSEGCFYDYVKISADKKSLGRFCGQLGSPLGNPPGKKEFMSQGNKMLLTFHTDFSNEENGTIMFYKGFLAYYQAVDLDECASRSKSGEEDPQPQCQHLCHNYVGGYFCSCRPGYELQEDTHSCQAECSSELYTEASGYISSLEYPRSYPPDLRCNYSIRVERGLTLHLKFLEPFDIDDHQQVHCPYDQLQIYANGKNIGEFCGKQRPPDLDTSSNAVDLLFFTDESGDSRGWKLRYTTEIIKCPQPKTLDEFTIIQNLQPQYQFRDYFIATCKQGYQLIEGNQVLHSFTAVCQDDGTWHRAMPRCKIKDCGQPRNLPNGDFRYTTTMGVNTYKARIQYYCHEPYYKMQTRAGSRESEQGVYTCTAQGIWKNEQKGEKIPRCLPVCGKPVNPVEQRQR
# C1s = target: T3, C1s (Homo sapiens, UniProt P09871); experiment: Anti-C1s activity (hydrolysis of ATEE); assay type: biochemical; conditions: molar concentration inhibiting 50% of ATEE hydrolysis; read-out: ID50 C1s (Anti-C1 activity)
# T3 sequence (P09871 438-688 limits assumed): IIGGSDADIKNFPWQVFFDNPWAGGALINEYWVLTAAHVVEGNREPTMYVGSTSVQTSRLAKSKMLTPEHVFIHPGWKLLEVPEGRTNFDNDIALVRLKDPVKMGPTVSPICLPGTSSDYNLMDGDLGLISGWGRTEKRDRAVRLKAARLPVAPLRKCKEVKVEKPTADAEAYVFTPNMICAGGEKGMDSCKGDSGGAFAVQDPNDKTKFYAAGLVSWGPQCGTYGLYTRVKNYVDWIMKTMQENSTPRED
# T3 sequence (P09871 16-437 partner limits assumed): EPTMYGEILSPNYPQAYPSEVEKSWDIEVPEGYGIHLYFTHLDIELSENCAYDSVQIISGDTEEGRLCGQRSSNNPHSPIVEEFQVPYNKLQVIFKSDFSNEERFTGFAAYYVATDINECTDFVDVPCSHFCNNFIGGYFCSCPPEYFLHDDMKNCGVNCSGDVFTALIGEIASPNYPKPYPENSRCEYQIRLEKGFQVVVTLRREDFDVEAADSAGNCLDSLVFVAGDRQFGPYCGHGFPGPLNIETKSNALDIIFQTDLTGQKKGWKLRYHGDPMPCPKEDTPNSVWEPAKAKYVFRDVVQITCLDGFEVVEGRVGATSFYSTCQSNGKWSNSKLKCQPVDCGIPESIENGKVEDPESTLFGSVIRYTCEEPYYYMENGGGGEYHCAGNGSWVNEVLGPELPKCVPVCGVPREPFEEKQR
# Method: The anti-C1 esterase (C1r, C1s) activity was determined according to the method of Okamura et al. [K. Okamura, M. Muramatsu and B. Fujii, Biochem. Biophys. Acta, 295, 252-257 (1973)]. The inhibition of complement mediated hemolysis was determined according to the method of Baker et al. [B. R. Baker and E. H. Erickson, J. Med. Chem. 12, 408-414 (1969)]. The figures in Table 2 have the following meanings:
# C1s: Molar concentration of the test compound which inhibits 50% of the ability of C1s to hydrolyse ATEE (acetyltyrosin ethyl ester) (ID50).
# complement = experiment: Inhibition of complement mediated hemolysis; assay type: cell-based
# Method: The complement mediated hemolysis is widely used as a means to determine the titration of complement. The principle of this method is based on the fact that hemolysis is caused by the activation of complement, when the latter is added to a complex (immune complex) of erythrocytes and the antibody thereof. The degree of hemolysis varies in proportion to the amount of complement added. Therefore, when a known amount of complement admixed with a C1 esterase inhibitor is used, the hemolysis must be suppressed in proportion to the inhibitory activity.
# The anti-C1 esterase (C1r, C1s) activity was determined according to the method of Okamura et al. [K. Okamura, M. Muramatsu and B. Fujii, Biochem. Biophys. […] The figures in Table 2 have the following meanings: […]
# Forssman shock = experiment: Forssman shock; assay type: in vivo, guinea pig; conditions: test compound 3 mg/kg before intravenous hemolysin; individual male guinea pigs; control died at 278, 318, 296 sec.
# Excerpt: Quite different from other animals, guinea pig has on the surface of its organs a specific antigen called Forssman antigen which specifically reacts with the antibody of sheep erythrocyte. Forssman shock is based on the above principle and is a shock caused by the administration of antibody of sheep erythrocyte to a guinea pig. The Forssman shock was investigated in detail by many researches and it was definitely shown that this shock is a model case where the complement plays the principal part and that the shock is associated with a classical pathway in which the complement system is activated progressively starting from C1. Since the participation of complement in autoimmune diseases has been established, the Forssman shock can be said to be useful means for testing a drug for autoimmune diseases. A drug effective for the treatment of Forssman shock is useful as a drug of autoimmune diseases. [Anti-trypsin, anti-plasmin, anti-kallikrein and anti-thrombin activities]
# The experiment was performed according to the method of I. G. Offerness et al. [Biochem. Pharmacol., 27 (14), 1873-1878 (1978)]. Male Hartlay guinea pig of about 300 g in body weight was used. Each guinea pig of the control group was administered intravenously with hemolysin (minimum dose to cause the shock) (commercial hemolysin, 5,000 U as assayed by the method of Ogata) and the time elapsed until death was observed. […]
# [1] = Median lethal dose (LD50); conditions: in vivo, mouse
Compound,"inhibition at 10 µM (Trypsin; figure in parentheses, at 1×10^-5 M, TAME, read-out: percentage inhibition of trypsin)","inhibition at 10 µM (Plasmin; figure in parentheses, at 1×10^-5 M, TAME, read-out: percentage inhibition of plasmin)",IC50 (Kallikrein),"inhibition at 10 µM (Thrombin; figure in parentheses, at 1×10^-5 M, TAME, read-out: percentage inhibition of thrombin)",IC50 (C1r),IC50 (C1s),Inhibition of complement mediated hemolysis (%) (complement; 1 × 10^-5),Inhibition of complement mediated hemolysis (%) (complement; 1 × 10^-6),Inhibition of complement mediated hemolysis (%) (complement; 1 × 10^-7),time elapsed until death (survival) in Forssman shock (Forssman shock),"LD50 ([1]; ip, I.P.)","LD50 ([1]; po, P.O.)","IC50 (Trypsin; molar concentration inhibiting 50% of TAME hydrolysis, read-out: ID50 trypsin)","IC50 (Plasmin; molar concentration inhibiting 50% of TAME hydrolysis, read-out: ID50 plasmin)","IC50 (Thrombin; molar concentration inhibiting 50% of TAME hydrolysis, read-out: ID50 thrombin)"
"N=C(N)NCc1ccc(C(=O)Oc2ccc3cc(C(=N)N)ccc3c2)o1 [Compound No. 1, 6-amidino-2-naphthyl 5-guanidinomethyl-furan-2-carboxylate]",35%,15%,5000 nM,22%,2000 nM,3000 nM,100%,99%,75%,Survival,100 mg/kg,2000 mg/kg,,,
"N=C(N)c1ccc2cc(OC(=O)c3ccc(CN)s3)ccc2c1 [Compound No. 31, 6-amidino-2-naphthyl 5-aminomethyl-thiophene-2-carboxylate]",,,400 nM,,200 nM,300 nM,100%,98%,97%,Survival,200 mg/kg,2500 mg/kg,20 nM,400 nM,1000 nM
